{"source": "patent US5763423A", "about": "“Pharmaceutical compositions, novel uses, and novel form of tocopherylphosphocholine” (Clarion Pharmaeuticals Inc., priority 1996, dated 1998)", "key": {"[1]": {"test_system": "Herpes simplex virus type-1", "assay": "Inhibition of cytopathic effects (CPE), Herpes Simplex Virus Type 1", "type": "cell-based, HSV-1 KOS strain (in Buffalo Green Monkey Kidney cells)", "details": "100 μM, 48 hr", "protocol": "(§1) The first assay is for inhibition of cytopathic effects (CPE) caused by viral infection of the cells and the second is a standard viral yield reduction assay. This yield reduction assay is a modification of the general method described by Erlich et al., Ann. NY Acad. Sci. 130, 5-16 (1965).\n(§2) 1. Buffalo Green Monkey Kidney cells, obtained from Dr. G. Sedmak, City of Milwaukee, Public Health Department Virology Laboratory, are plated at a density of 7×10^4 cells per well in a standard flat bottom 96 well cell culture plate. The cells are contained in a volume of 200 μl Dulbecco's Modified Eagles Medium (DMEM) containing 10% serum [1:1 mixture of fetal bovine serum and defined supplemented calf serum (Hyclone, Inc., Ogden, Utah), 10 mM HEPES buffer (pH 7.2), 100 U/ml penicillin and 100 μg/ml streptomycin sulfate]. HEPES and antibiotics are obtained from Sigma Chemical Co. (St. Louis, Mo.). Two wells are plated for each of the following samples: compound CPR-2001, cell control (cells only), virus control (cells infected but not treated), vehicle control (solvent for compound, 9:1 dimethylsulfoxide:ethanol), and cell counts.\n2. […]\n9. At the end of 48 hr, each well is scored for the presence of CPE as indicated by rounding and/or detachment of the cells from the plate. […]"}, "[2]": {"test_system": "Herpes simplex virus type-1", "assay": "Viral yield reduction assay, Herpes Simplex Virus Type 1", "type": "cell-based, HSV-1 KOS strain (in Buffalo Green Monkey Kidney cells)", "protocol": "as §1, §2\n(§3) 2. The cultures are incubated at 37° C. with 5% CO2 until a monolayer of cells is formed on the bottom of each well (usually overnight).\n(§4) 3. The media is removed from the wells by aspiration. The cells are refed with media containing the desired concentration of test compound CPR-2001 (100 μM final concentration), media only (cell control and virus control samples), or solvent (9:1, DMSO:ethanol) at a final concentration of 0.33%. Compound CPR-2001 is dissolved at a stock concentration of 30 mM and diluted 300-fold. The cell count wells receive media only.\n(§5) 4. The cultures are incubated for 24 hr at 37° C. with 5% CO2.\n7. […]\n10. After scoring for viral CPE, the yield of infectious virus in each well is measured by standard plaque assay on Vero cells (ATCC #CCL81). […] Excess stain is rinsed from the cells, the number of plaques are counted and the yield of virus in the original sample is calculated."}, "[3]": {"test_system": "Buffalo Green Monkey Kidney cells", "assay": "Toxicity to uninfected cells (rounding and/or detachment, 24 hr)", "type": "cell-based", "set-up": "key to Toxicity 24 hr: Not toxic", "protocol": "as §2, §3, §4, §5\n5. At the end of 24 hr, each well is scored for the presence of toxicity (cells exposed to compound but not infected) as indicated by rounding and/or detachment of the cells from the plate. Scoring is as follows: 1+, 25% of cells rounded; 2+, 25 to 50% of cells rounded; 3+, 75% of cells rounded; 4+, 100% of cells rounded."}, "[4]": {"test_system": "Poliovirus Type III", "type": "cell-based", "details": "100 μM, 48 hr"}, "[5]": {"test_system": "Poliovirus Type III", "type": "cell-based", "details": "100 μM, 48 hr", "remark": "listed apart in the source"}, "[6]": {"test_system": "Candida albicans", "assay": "Antifungal assay, Candida albicans", "type": "cell-based", "protocol": "(§6) 1. 10^4 Cells (either C. albicans or C. neoformans) are placed in wells of a 96-well plate within a total volume of 90 μl. Cells are grown in RPMI-1640 plus 10% FCS.\n(§7) 2. Add 10 μl of control or drug to be evaluated (CPR-2001):\n(§8) Fungizone (2.5 μg/ml and 5.0 μg/ml); and\n(§9) 3. Incubate for 48 hours at 37° C.\n(§10) 5. Plate onto Sabourand plates and incubate overnight at 37° C.; and\n(§11) 6. Count and record colonies.\n(§12) All samples are tested in duplicate in two separate experiments. The data are then averaged to obtain the following results in Table 2."}, "[7]": {"test_system": "Cryptococcus neoformans", "assay": "Antifungal assay, Cryptococcus neoformans", "type": "cell-based", "protocol": "as §6, §7, §8, §9, §10, §11, §12"}, "[8]": {"assay": "Anti-PAF activity in anesthetized guinea pigs (total pulmonary resistance)", "type": "in vivo", "details": "for TPR after PAF, % of Controls: PAF controls 183.36; for PAF antagonist activity / TPR (in words): 1, 3, 10, 30 and 50 μM per kg"}, "[9]": {"assay": "Liposome particle size by laser-light scattering (QELS)", "type": "physicochemical", "details": "10 micromoles", "excerpt": "[…] The solution is transferred to a 16×120 mm screw-capped tube. The tube is placed, uncapped, inside a 1×8 inch boiling tube with B24/40 standard glass fitting. Inside the boiling tube, in the space between the boiling tube and the smaller screw-capped tube, there is a small amount of distilled water to aid thermal contact between the inner and outer tube. The boiling tube is placed on a rotary evaporator under reduced pressure to evaporate the chloroform and leave the lipid as a thin film in the lower portion of the screw-capped tube. The boiling tube is partly immersed in a water bath at 37° C. during the evaporation to aid the process.\n(§13) Once a thin film has been formed, the screw-capped tube is removed from the boiling tube, and one ml. of aqueous solution is added to it. The tube is capped and immersed in a water bath at 75° C. to aid swelling of the lipid. Swelling of the film is observed to occur when the film becomes cloudy, and is, with agitation, dislodged from the walls of the tube to give a cloudy suspension in the aqueous medium. This suspension is found to consist of liposomes by the application of two techniques. First, laser-light scattering, or QELS, reveal the presence of particles of 658 nm in diameter in one determination, 1468 nm in another.\nIn a second preparation, 10 micromoles of CPR 2001 are taken through the identical procedure described above. […]"}, "[10]": {"assay": "Electron microscopy of liposomes", "type": "physicochemical", "protocol": "Five micromoles of CPR-2001 are dissolved in about 1 ml. of chloroform. The solution is transferred to a 16×120 mm screw-capped tube. The tube is placed, uncapped, inside a 1×8 inch boiling tube with B24/40 standard glass fitting. Inside the boiling tube, in the space between the boiling tube and the smaller screw-capped tube, there is a small amount of distilled water to aid thermal contact between the inner and outer tube. The boiling tube is placed on a rotary evaporator under reduced pressure to evaporate the chloroform and leave the lipid as a thin film in the lower portion of the screw-capped tube. The boiling tube is partly immersed in a water bath at 37° C. during the evaporation to aid the process.\nas §13, with “another. […]” for “another.”"}, "[11]": {"test_system": "RAW 264.7 cells", "assay": "Chemiluminescence (CL) assay, inhibition of macrophage activation by PMA", "details": "for anti-inflammatory activity (in words): 1 to 30 μM; for inhibition at 1 µM / inhibition at 3 µM / inhibition at 10 µM / inhibition at 30 µM: Mus musculus, RAW264.7, read-out: % inhibition of macrophage activation by PMA"}, "[12]": {"details": "increasing concentration, 1 to 100 μg/ml"}}, "note": "“Also recorded” adds a separate entry of the source."}
{"smiles": "Cc1c(C)c2c(c(C)c1OP(=O)([O-])OCC[N+](C)(C)C)CCC(C)(CCCC(C)CCCC(C)CCCC(C)C)O2", "note": "(stereo not drawn) [CPR-2001, α-tocopherolphosphocholine]", "values": [{"measurement": "Viral CPE", "setting": "[1]", "result": "1+ (<25% of cells rounded)"}, {"measurement": "development of viral cytopathic effect (in words)", "setting": "[1]", "result": "markedly inhibits the development of viral cytopathic effect"}, {"measurement": "Virus Yields (48 Hours)", "setting": "[2]; 100 μM", "result": "5.5 × 10^4 PFU/ml"}, {"measurement": "Reduction of virus yield (fold reduction)", "setting": "[2]; 100 μM, 48 hr, compared to virus and vehicle control", "result": 18, "unit": "fold"}, {"measurement": "activity at 100 µM", "setting": "[2]; Human alphaherpesvirus 1, BGMK, in Chlorocebus sabaeus, 48 hr, virus control 1.00, read-out: Virus Yields (48 Hours), Yield", "result": 5.5, "unit": "%"}, {"measurement": "Toxicity", "setting": "[3]; Table 1A, 100 μM, 24 hr", "result": "N-±"}, {"measurement": "Toxicity 24 hr", "setting": "[3]; Table 1B, 100 μM, 24 hr", "result": "N"}, {"measurement": "Toxicity (in words)", "setting": "[3]; at antivirally effective levels", "result": "No apparent cytotoxicity; also recorded: not toxic"}, {"measurement": "CPE", "setting": "[4]", "result": "2+ (25 to 50% of cells rounded)"}, {"measurement": "development of viral CPE (in words)", "setting": "[4]", "result": "inhibits the development of viral CPE"}, {"measurement": "Titer", "setting": "[5]", "result": "2.7 × 10^6 pfu/ml"}, {"measurement": "Fold-Reduction of virus yield", "setting": "[5]; compared to virus control", "result": 10.7, "unit": "fold"}, {"measurement": "inhibition at 1 µg/mL", "setting": "[6]; Candida albicans, 1 mcg/ml, 48 hours", "result": 25, "unit": "%"}, {"measurement": "inhibition at 10 µg/mL", "setting": "[6]; Candida albicans, 10 mcg/ml, 48 hours", "result": 40, "unit": "%"}, {"measurement": "inhibition at 100 µg/mL", "setting": "[6]; Candida albicans, 100 mcg/ml, 48 hours", "result": 76, "unit": "%"}, {"measurement": "percent of fungal inhibition (in words)", "setting": "[6]; [12]", "result": "the percent of fungal inhibition also increases"}, {"measurement": "inhibition at 1 µg/mL", "setting": "[7]; Cryptococcus neoformans, 1 mcg/ml, 48 hours", "result": 10, "unit": "%"}, {"measurement": "inhibition at 10 µg/mL", "setting": "[7]; Cryptococcus neoformans, 10 mcg/ml, 48 hours", "result": 40, "unit": "%"}, {"measurement": "inhibition at 100 µg/mL", "setting": "[7]; Cryptococcus neoformans, 100 mcg/ml, 48 hours", "result": 73, "unit": "%"}, {"measurement": "percent of fungal inhibition (in words)", "setting": "[7]; [12]", "result": "the percent of fungal inhibition also increases"}, {"measurement": "TPR after PAF, % of Controls", "setting": "[8]; 1 μM/kg i.v.", "result": "193.75 % of Controls"}, {"measurement": "TPR after PAF, % of Controls", "setting": "[8]; 3 μM/kg i.v.", "result": "124.58 % of Controls"}, {"measurement": "TPR after PAF, % of Controls", "setting": "[8]; 10 μM/kg i.v.", "result": "98.19 % of Controls"}, {"measurement": "TPR after PAF, % of Controls", "setting": "[8]; 30 μM/kg i.v.", "result": "19.60 % of Controls"}, {"measurement": "TPR after PAF, % of Controls", "setting": "[8]; 50 μM/kg i.v.", "result": "8.33 % of Controls"}, {"measurement": "PAF antagonist activity / TPR (in words)", "setting": "[8]", "result": "Decreases of TPR in a dose-related way"}, {"measurement": "PAF antagonist activity / TPR (in words)", "setting": "[8]; listed as α-tocopherolphosphocholine", "result": "marked PAF antagonist activity"}, {"measurement": "particle size of liposomes (QELS)", "setting": "[9]; after about 10 minutes sonication at 75° C.", "result": 102, "unit": "nm"}, {"measurement": "particle size of liposomes (QELS)", "setting": "[9]; before sonication", "result": "greater than 5,000 nm"}, {"measurement": "structure of particles by electron microscopy", "setting": "[10]; 5 micromoles, not sonicated", "result": "characteristic concentric lamellar structure of liposomes"}, {"measurement": "structure of particles by electron microscopy", "setting": "[10]; 10 micromoles, after sonication", "result": "still multilamellar, but smaller"}, {"measurement": "anti-inflammatory activity (in words)", "setting": "[11]", "result": "marked dose-related anti-inflammatory activity"}, {"measurement": "anti-inflammatory activity (in words)", "setting": "[11]; listed as CPR2001", "result": "antiinflammatory activity markedly increases"}, {"measurement": "inhibition at 1 µM", "setting": "[11]", "result": 5, "unit": "%"}, {"measurement": "inhibition at 3 µM", "setting": "[11]", "result": 13, "unit": "%"}, {"measurement": "inhibition at 10 µM", "setting": "[11]", "result": 31, "unit": "%"}, {"measurement": "inhibition at 30 µM", "setting": "[11]", "result": 56, "unit": "%"}]}
{"smiles": "CC1=C(/C=C/C(C)=C/C=C/C(C)=C/C(=O)O)C(C)(C)CCC1", "note": "[Retinoic Acid, retinoic acid]", "values": [{"measurement": "inhibition at 1 µM", "setting": "[11]", "result": 2, "unit": "%"}, {"measurement": "inhibition at 3 µM", "setting": "[11]", "result": 6, "unit": "%"}, {"measurement": "inhibition at 10 µM", "setting": "[11]", "result": 3, "unit": "%"}, {"measurement": "inhibition at 30 µM", "setting": "[11]", "result": 6, "unit": "%"}]}
{"smiles": "Cc1c(C)c2c(c(C)c1O)CCC(C)(CCCC(C)CCCC(C)CCCC(C)C)O2", "note": "(stereo not drawn) [α-Tocopherol, α-tocopherol]", "values": [{"measurement": "inhibition at 1 µM", "setting": "[11]", "result": -3, "unit": "%"}, {"measurement": "inhibition at 3 µM", "setting": "[11]", "result": -6, "unit": "%"}, {"measurement": "inhibition at 10 µM", "setting": "[11]", "result": -6, "unit": "%"}, {"measurement": "inhibition at 30 µM", "setting": "[11]", "result": -14, "unit": "%"}]}
